Assay results reported in patent US8163909B2, “Substituted hydroxyethyl amine compounds as beta-secretase modulators and methods of use” (Amgen Inc., priority 2007, dated 2012).
Read-outs that look alike come from different tables or passages of the source.

Legend:
[1] = target: Beta Secretase enzyme (BACE) (Homo sapiens, UniProt P56817); test: In vitro enzymatic BACE FRET (fluorescence resonance energy transfer) assay; format: biochemical;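 note: fluorescence read after 1 h with 50 nM quenched peptide substrate spanning the BACE cleavage site, in pH 4.2 acetate buffer containing 10% DMSO and nonionic detergent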
Chain of Beta Secretase enzyme (BACE) (P56817 46-501): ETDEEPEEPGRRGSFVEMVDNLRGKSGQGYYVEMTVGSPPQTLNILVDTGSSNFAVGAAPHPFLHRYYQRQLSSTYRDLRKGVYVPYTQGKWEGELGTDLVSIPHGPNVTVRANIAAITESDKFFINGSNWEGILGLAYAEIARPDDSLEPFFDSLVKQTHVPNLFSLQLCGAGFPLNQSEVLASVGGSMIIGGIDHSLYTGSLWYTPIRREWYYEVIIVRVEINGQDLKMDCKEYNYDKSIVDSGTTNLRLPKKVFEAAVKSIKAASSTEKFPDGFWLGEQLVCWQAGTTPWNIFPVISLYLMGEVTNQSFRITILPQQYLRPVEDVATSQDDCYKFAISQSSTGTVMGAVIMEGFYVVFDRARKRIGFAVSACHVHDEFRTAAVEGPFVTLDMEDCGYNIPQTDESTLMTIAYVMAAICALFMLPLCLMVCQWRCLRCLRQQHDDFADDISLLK

[2] = system: Aβ40 in conditioned medium of cells stably expressing Amyloid Precursor Protein (APP); test: In vitro BACE cell-based assay (Aβ40 in conditioned medium, sandwich ELISA); conditions: Homo sapiens;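 note: compounds added as a dilution series, secreted peptide quantified by europium time-resolved fluorescence readout, potency fitted from percent of control versus compound concentration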
CYP3A4 (CYP3A) = CYP3A4 (CYP3A) (Homo sapiens, UniProt P08684); test: in vitro; conditions: microsomes, pH 7.4;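 note: inhibition of CYP3A-mediated 1-hydroxymidazolam formation after 10 min incubation with NADPH, quantified by HPLC MS relative to metabolite produced without test compound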
Chain of CYP3A4 (CYP3A) (P08684 2-503): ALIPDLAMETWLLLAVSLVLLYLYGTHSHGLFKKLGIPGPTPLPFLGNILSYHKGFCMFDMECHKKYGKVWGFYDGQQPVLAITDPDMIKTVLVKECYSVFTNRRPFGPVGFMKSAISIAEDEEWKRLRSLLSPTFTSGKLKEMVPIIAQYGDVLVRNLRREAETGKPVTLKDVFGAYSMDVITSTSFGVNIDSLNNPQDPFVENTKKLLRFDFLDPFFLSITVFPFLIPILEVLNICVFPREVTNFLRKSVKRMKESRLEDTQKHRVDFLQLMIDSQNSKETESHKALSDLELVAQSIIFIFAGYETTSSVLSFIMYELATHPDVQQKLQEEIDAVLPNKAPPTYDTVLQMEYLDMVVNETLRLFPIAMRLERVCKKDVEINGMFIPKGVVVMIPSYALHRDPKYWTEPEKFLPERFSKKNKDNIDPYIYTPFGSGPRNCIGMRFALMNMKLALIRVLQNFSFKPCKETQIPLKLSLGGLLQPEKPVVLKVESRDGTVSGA

[3] = Microsomal stability assay, rat liver microsomes;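 note: rat liver microsomes (0.25 mg/mL) with about 1 µM compound plus 1 mM NADPH, pH 7.4, 37 °C for 30 min, parent left measured by LC-MS/MS against 0 min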
[4] = Microsomal stability assay, human liver microsomes;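 note: pooled human liver microsomes at 0.25 mg/mL with 1 µM compound and NADPH at 37 °C, pH 7.4, for 30 min, unchanged parent quantified by LC-MS/MS against the 0 min sample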
CYP2D6 = CYP2D6 (Homo sapiens, UniProt P10635); test: CYP2D6 inhibition assay (bufuralol, pooled human liver microsomes)
Chain of CYP2D6 (P10635 whole entry): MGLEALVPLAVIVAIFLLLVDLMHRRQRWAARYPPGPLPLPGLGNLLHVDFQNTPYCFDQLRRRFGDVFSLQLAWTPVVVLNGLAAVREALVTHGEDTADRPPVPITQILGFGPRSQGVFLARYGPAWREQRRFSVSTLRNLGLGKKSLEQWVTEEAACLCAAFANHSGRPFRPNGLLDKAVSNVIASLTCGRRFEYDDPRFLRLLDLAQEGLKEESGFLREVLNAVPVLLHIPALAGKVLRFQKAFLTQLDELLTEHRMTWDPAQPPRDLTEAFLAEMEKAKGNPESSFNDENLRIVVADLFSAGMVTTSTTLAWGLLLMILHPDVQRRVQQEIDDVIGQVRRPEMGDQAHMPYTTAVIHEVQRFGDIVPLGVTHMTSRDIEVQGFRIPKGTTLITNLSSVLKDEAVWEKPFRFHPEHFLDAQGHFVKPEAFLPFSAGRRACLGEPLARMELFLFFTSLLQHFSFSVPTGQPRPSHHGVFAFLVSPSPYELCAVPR

[5] = 2D6 IC50 (uM), CYP enzyme inhibition
[6] = read-out: BACE1 FRET assay (IC50)
[7] = HEK293, HEK cells, read-out: HEK cell assay (IC50)
[8] = BACE enzyme assay IC50, read-out: BACE1 FRET assay
[9] = HEK293, HEK cell-based assay IC50, read-out: HEK cell assay
[10] = 2D6 IC50 (uM), CYP2D6 inhibition
[11] = BACE enzyme assay, IC50's in uM, read-out: BACE1 FRET assay
[12] = HEK293, HEK cell-based assay, IC50's in uM, read-out: HEK cell assay
[13] = Table 2, read-out: BACE1 FRET assay
[14] = HEK293, Table 2, HEK cells, read-out: HEK cell assay
[15] = 2D6 IC50, CYP enzyme inhibition

CC(=O)N[C@@H](Cc1ccc(F)cc1)[C@H](O)CN[C@H]1CC2(CCC2)Oc2c1cc(CC(C)(C)C)nc2N1CCOCC1 [Example 421, N-((2S,3R)-4-((S)-2,2-spirocyclobutyl-8-morpholino-6-neopentyl-3,4-dihydro-2H-pyrano[2,3-c]pyridin-4-ylamino)-1-(4-fluorophenyl)-3-hydroxybutan-2-yl)acetamide]
IC50 ([1]; BACE enzyme assay, read-out: BACE1 FRET assay): 0.134 µM
IC50 ([2]; HEK293, HEK cells, read-out: HEK cell assay): 0.054 µM
IC50 (CYP3A4 (CYP3A)): 1300 nM
RLM ([3]; rat liver microsomal data): 151 µL/min/mg
HLM ([4]; human liver microsomal data): 211 µL/min/mg
IC50 (CYP2D6; [5]): 3.6 µM

COCC(=O)N[C@@H](Cc1cccc(F)c1)[C@H](O)CN[C@H]1CC2(CCC2)Oc2c1cc(CC(C)(C)OC)cc2-n1ccnc1.O=C(O)C(F)(F)F [Example 423]
IC50 [1, 6]: 0.579 µM
IC50 [2, 7]: 0.063 µM
IC50 (CYP3A4 (CYP3A)): 100 nM
RLM ([3]; rat liver microsomes): 132 µL/min/mg
HLM ([4]; human liver microsomes): 35 µL/min/mg
IC50 (CYP2D6; 2D6 IC50, CYP2D6 inhibition): 0.3 µM

CC(=O)N[C@@H](Cc1ccc(F)c(-n2ccnc2)c1)[C@H](O)CN[C@H]1CC2(CCC2)Oc2ncc(CC(C)(C)C)cc21 [Example 426, N-((1S,2R)-3-(((4′S)-6′-(2,2-dimethylpropyl)-3′,4′-dihydrospiro[cyclobutane-1,2′-pyrano[2,3-b]pyridin]-4′-yl)amino)-1-(4-fluoro-3-(1H-imidazol-1-yl)benzyl)-2-hydroxypropyl)acetamide]
IC50 [1, 8]: 0.031 µM
IC50 [2, 9]: 0.011 µM
IC50 (CYP3A4 (CYP3A)): ≤ 30 nM
RLM ([3]; rat liver microsomes): 14 µL/min/mg
HLM ([4]; human liver microsomes): 22 µL/min/mg
IC50 (CYP2D6; [10]): 0.1 µM

CC(=O)N[C@@H](Cc1ccc(F)c(-c2ncc[nH]2)c1)[C@H](O)CN[C@H]1CC2(CCC2)Oc2ncc(CC(C)(C)C)cc21 [Example 428, N-((2S,3R)-4-((S)-2,2-spirocyclobutyl-6-neopentyl-3,4-dihydro-2H-pyrano[2,3-b]pyridin-4-ylamino)-1-(4-fluoro-3-(1H-imidazol-2-yl)phenyl)-3-hydroxybutan-2-yl)acetamide]
IC50 [1, 8]: 0.061 µM
IC50 [2, 9]: 0.013 µM
IC50 (CYP3A4 (CYP3A)): 300 nM
RLM ([3]; rat liver microsomes): 124 µL/min/mg
HLM ([4]; human liver microsomes): 225 µL/min/mg
IC50 (CYP2D6; [10]): 1.3 µM

CC(=O)N[C@@H](Cc1cccc(-c2ncc[nH]2)c1)[C@H](O)CN[C@H]1CC2(CCC2)Oc2ncc(CC(C)(C)C)cc21 [Example 429, N-((2S,3R)-1-(3-(1H-imidazol-2-yl)phenyl)-4-((S)-2,2-spirocyclobutyl-6-neopentyl-3,4-dihydro-2H-pyrano[2,3-b]pyridin-4-ylamino)-3-hydroxybutan-2-yl)acetamide]
IC50 [1, 8]: 3.59 µM
IC50 [2, 9]: 0.6 µM
IC50 (CYP3A4 (CYP3A)): 1300 nM
RLM ([3]; rat liver microsomes): 37 µL/min/mg
HLM ([4]; human liver microsomes): 88 µL/min/mg
IC50 (CYP2D6; [10]): 0.5 µM

CC(=O)N[C@@H](Cc1ccc(F)c(-c2ccco2)c1)[C@H](O)CN[C@H]1CC2(CCC2)Oc2ccc(CC(C)(C)C)cc21 [Example 432, N-((2S,3R)-4-((S)-2,2-spirocyclobutyl-6-neopentyl-3,4-dihydro-2H-chromen-4-ylamino)-1-(4-fluoro-3-(furan-2-yl)phenyl)-3-hydroxybutan-2-yl)acetamide]
IC50 [1, 6]: 0.006 µM
IC50 [2, 7]: 0.332 µM
IC50 (CYP3A4 (CYP3A)): 1500 nM
RLM ([3]; rat liver microsomes): 323 µL/min/mg
HLM ([4]; human liver microsomes): 280 µL/min/mg
IC50 (CYP2D6; 2D6 IC50, CYP2D6 inhibition): 3.1 µM

CC(=O)N[C@@H](Cc1cc(F)cc(-c2ccncc2)c1)[C@H](O)CN[C@H]1CC2(CCC2)Oc2ccc(CC(C)(C)C)cc21 [Example 433, N-((2S,3R)-4-((S)-2,2-spirocyclobutyl-6-neopentyl-3,4-dihydro-2H-chromen-4-ylamino)-1-(3-fluoro-5-(pyridin-4-yl)phenyl)-3-hydroxybutan-2-yl)acetamide]
IC50 [1, 6]: 0.021 µM
IC50 [2, 7]: 0.038 µM
IC50 (CYP3A4 (CYP3A)): 1100 nM
RLM ([3]; rat liver microsomes): 590 µL/min/mg
HLM ([4]; human liver microsomes): 492 µL/min/mg
IC50 (CYP2D6; 2D6 IC50, CYP2D6 inhibition): 0.2 µM

COCC(=O)N[C@@H](Cc1ccc(-c2nccs2)cc1)[C@H](O)CN[C@H]1CC2(CCC2)Oc2ncc(CC(C)C)cc21 [Example 434, N-((2S,3R)-3-hydroxy-4-((S)-6-isobutyl-2,2-spirocyclobutyl-3,4-dihydro-2H-pyrano[2,3-b]pyridin-4-ylamino)-1-(4-(thiazol-2-yl)phenyl)butan-2-yl)-2-methoxyacetamide]
IC50 [1, 11]: 0.075 µM
IC50 [2, 12]: 0.273 µM
IC50 (CYP3A4 (CYP3A)): 200 nM
RLM ([3]; rat liver microsomal data): 60 µL/min/mg
HLM ([4]; human liver microsomal data): 80 µL/min/mg
IC50 (CYP2D6; [5]): 1.3 µM

COCC(=O)N[C@@H](Cc1cccc(F)c1)[C@H](O)CN[C@H]1CC2(CCC2)Oc2c(-c3ccnc(N(C)C)c3)cc(CC(C)(C)C)cc21 [Example 439, N-((1S,2R)-3-(((4S)-8-(2-(dimethylamino)-4-pyridinyl)-6-(2,2-dimethylpropyl)-3,4-dihydrospiro[chromene-2,1′-cyclobutan]-4-yl)amino)-1-(3-fluorobenzyl)-2-hydroxypropyl)-2-methoxyacetamide]
IC50 [1, 8]: 0.02 µM
IC50 [2, 9]: 0.005 µM
IC50 (CYP3A4 (CYP3A)): 1300 nM
RLM ([3]; rat liver microsomes): 515 µL/min/mg
HLM ([4]; human liver microsomes): 601 µL/min/mg
IC50 (CYP2D6; [10]): 4.1 µM

COCC(=O)N[C@@H](Cc1ccc(F)cc1)[C@H](O)CN[C@@H]1CC2(CCC2)Oc2c1cc(CC(C)(C)C)nc2-n1ccnc1 [compound 449]
IC50 [1, 13]: 2.9 µM
IC50 [2, 14]: 2.97 µM
IC50 (CYP3A4 (CYP3A)): 100 nM
RLM ([3]; rat liver microsomal data): 163 µL/min/mg
IC50 (CYP2D6; [15]): 0.8 µM

CC(C)(C)Cc1cnc2c(c1)[C@@H](NC[C@@H](O)[C@H](Cc1cccc(C#N)c1)NC(=O)c1ncccc1F)CC1(CC(F)(F)C1)O2 [compound 473]
IC50 [1, 13]: 0.009 µM
IC50 [2, 14]: 0.063 µM
IC50 (CYP3A4 (CYP3A)): 600 nM
RLM ([3]; rat liver microsomal data): 775 µL/min/mg
IC50 (CYP2D6; [15]): 2.4 µM

COC(OC)C(=O)N[C@@H](Cc1ccc(F)cc1)[C@H](O)CN[C@H]1CC2(CCC2)Oc2ncc(CC(C)(C)C)cc21 [compound 591]
IC50 [1, 6]: 0.01 µM
IC50 [2, 7]: 0.018 µM
IC50 (CYP3A4 (CYP3A)): 600 nM
RLM ([3]; rat liver microsomes): 375 µL/min/mg
IC50 (CYP2D6; 2D6 IC50, CYP2D6 inhibition): 10.3 µM

CC(=O)N[C@@H](Cc1cc(F)cc(F)c1)[C@H](O)CN[C@H]1CC2(CCC2)Oc2c1cc(CC(C)(C)C)nc2Nc1ccccc1 [compound 598]
IC50 [1, 6]: 0.023 µM
IC50 [2, 7]: 0.26 µM
IC50 (CYP3A4 (CYP3A)): 6900 nM
RLM ([3]; rat liver microsomes): 102 µL/min/mg
IC50 (CYP2D6; 2D6 IC50, CYP2D6 inhibition): ≥ 27 µM

COCC(=O)N[C@@H](Cc1ccc(F)cc1)[C@H](O)CN[C@H]1CC2(CCNC2)Oc2cnc(CC(C)(C)C)cc21 (stereo partly shown) [compound 696]
IC50 [2, 9]: 0.778 µM
IC50 (CYP3A4 (CYP3A)): 2900 nM
RLM ([3]; rat liver microsomes): 44 µL/min/mg
HLM ([4]; human liver microsomes): 32 µL/min/mg
IC50 (CYP2D6; [10]): ≥ 27 µM

CC(C)Cc1cnc2c(c1)[C@@H](NC[C@H](O)[C@@H](Cc1cccc(-c3nccs3)c1)NC(=O)[C@@H]1CCCO1)CC1(CCC1)O2 [compound 796]
IC50 [2, 12]: 0.663 µM
IC50 (CYP3A4 (CYP3A)): 200 nM
RLM ([3]; rat liver microsomal data): 58 µL/min/mg
HLM ([4]; human liver microsomal data): 126 µL/min/mg
IC50 (CYP2D6; [5]): 0.6 µM

CCCc1cnc2c(c1)[C@@H](NC[C@H](O)[C@@H](Cc1cc(F)cc(-c3nccs3)c1)NC(=O)[C@@H](C)OC)CC1(CCC1)O2 [compound 815]
IC50 (CYP3A4 (CYP3A)): 200 nM
RLM ([3]; rat liver microsomal data): 276 µL/min/mg
HLM ([4]; human liver microsomal data): 204 µL/min/mg
IC50 (CYP2D6; [5]): 0.6 µM

CO[C@H](C)C(=O)N[C@H](Cc1cc(F)cc(-c2nccs2)c1)[C@@H](O)CN[C@H]1CC2(CCC2)Oc2ncc(Br)cc21 [compound 821]
IC50 [2, 12]: 0.558 µM
IC50 (CYP3A4 (CYP3A)): 300 nM
RLM ([3]; rat liver microsomal data): 243 µL/min/mg
HLM ([4]; human liver microsomal data): 162 µL/min/mg
IC50 (CYP2D6; [5]): 0.5 µM

CCCc1cnc2c(c1)[C@@H](NC[C@H](O)[C@@H](Cc1cc(F)cc(-c3nccs3)c1)NC(=O)COC)CC1(CCC1)O2 [compound 833]
IC50 [2, 12]: 2.28 µM
IC50 (CYP3A4 (CYP3A)): 300 nM
RLM ([3]; rat liver microsomal data): 189 µL/min/mg
HLM ([4]; human liver microsomal data): 219 µL/min/mg
IC50 (CYP2D6; [5]): 0.9 µM

C#Cc1ccc(C[C@H](NC(=O)[C@@H](C)OC)[C@H](O)CN[C@H]2CC3(CCC3)Oc3ncc(CC(C)(C)C)cc32)cc1 [compound 884]
IC50 [1, 11]: 0.251 µM
IC50 ([2]; HEK293, cell-based assay, HEK cells, IC50's in uM, read-out: HEK cell assay): 0.097 µM
IC50 (CYP3A4 (CYP3A)): 100 nM
RLM ([3]; rat liver microsomal data): 55 µL/min/mg
IC50 (CYP2D6; [15]): 3.8 µM

CO[C@H](C)C(=O)N[C@@H](Cc1cccc(-c2nccs2)c1)[C@H](O)CN[C@H]1CC2(CCC2)Oc2ncc([C@@H]3CC3(C)C)cc21 [compound 905]
IC50 (CYP3A4 (CYP3A)): 200 nM
RLM ([3]; rat liver microsomal data): 71 µL/min/mg
HLM ([4]; human liver microsomal data): 60 µL/min/mg
IC50 (CYP2D6; [15]): 0.9 µM

CC1(C)C[C@H]1c1cnc2c(c1)[C@@H](NC[C@@H](O)[C@H](Cc1cccc(-c3nccs3)c1)NC(=O)[C@H]1CCCO1)CC1(CCC1)O2 [compound 906]
IC50 (CYP3A4 (CYP3A)): 100 nM
RLM ([3]; rat liver microsomal data): 63 µL/min/mg
HLM ([4]; human liver microsomal data): 94 µL/min/mg
IC50 (CYP2D6; [15]): 0.4 µM

CC1(C)C[C@H]1c1cnc2c(c1)[C@@H](NC[C@@H](O)[C@H](Cc1cccc(-c3nccs3)c1)NC(=O)[C@@H]1CCCO1)CC1(CCC1)O2 [compound 907]
IC50 (CYP3A4 (CYP3A)): 100 nM
RLM ([3]; rat liver microsomal data): 78 µL/min/mg
HLM ([4]; human liver microsomal data): 77 µL/min/mg
IC50 (CYP2D6; [15]): 0.5 µM
